Tests used:
Assay in all cases: Herbicidal activity, foliar application of single compounds (Test Examples 1 to 5)
Format in all cases: in vivo
Set-up in all cases: key: 0 means the state where the plants are as sound as before the application of the active compound; 1, 2, 3 and 4 mean varying degrees of the enfeebled state of the plants between 0 and 5; 1, 2, 3 and 4 mean varying degrees of the enfeebled state of the plants between 0 and 5; 1, 2, 3 and 4 mean varying degrees of the enfeebled state of the plants between 0 and 5; 1, 2, 3 and 4 mean varying degrees of the enfeebled state of the plants between 0 and 5; 5 is the state where the plants are withered or killed by application of the active compound
Settings in all cases: 3 weeks after application
Abutilon theophrosti = test system: Abutilon theophrosti
Method: (§1) In these examples, all parts means parts by weight, unless otherwise noted. The herbicidal activity was evaluated on a scale of 6 degrees. In other words, 0 means the state where the plants are as sound as before the application of the active compound, while 5 is the state where the plants are withered or killed by application of the active compound, and 1, 2, 3 and 4 mean varying degrees of the enfeebled state of the plants between 0 and 5.
(§2) The diphenyl ethers shown in Table 2 were added to 5000 parts of a mixture of acetone and water (1 : 1 by volume), and 2.6 parts of a nonionic surfactant (Sorpol 2680, tradename) was added to form a solution, so that the ether becomes the prescribed amount in each solution.
(§3) Seeds of plants were sown in the soil, cultivated for 2 to 3 weeks, after germination, then the plants were used for the tests.
(§4) The prepared solution was applied to these plants at the prescribed rate of application in total, then the plants were continuously cultivated for 3 weeks without applying the solution.
(§5) The alphabetical symbols in Tables 2 and 3 represent the following plants, respectively: a: Digitaria adscendens b: Setaria viridis c: Sorghum halepense d: Chenopodium album var. centrorubrum e: Amaranthus mangostanus f: Astragalus sinicus g: Abutilon theophrosti h: Solanum nigrum i: Xanthium strumarium j: Soybean; Glycine max k: Corn; Zea mays Table 2

[1] = test system: Chenopodium album var. centrorubrum
Method: as §1, §2, §3, §4, §5

Corn; Zea mays = test system: Corn; Zea mays
Method: as §1, §2, §3, §4, §5

Setaria viridis = test system: Setaria viridis
Method: as §1, §2, §3, §4, §5

Solanum nigrum = test system: Solanum nigrum
Method: as §1, §2, §3, §4, §5

Sorghum halepense = test system: Sorghum halepense
Method: as §1, §2, §3, §4, §5

Soybean; Glycine max = test system: Soybean; Glycine max
Method: as §1, §2, §3, §4, §5

Xanthium strumarium = test system: Xanthium strumarium
Method: as §1, §2, §3, §4, §5

[2] = Rate of Application 0.016 kg/ha
[3] = Rate of Application 0.031 kg/ha

## COC(=O)C(C)Oc1cc(Oc2ccc(C(F)(F)F)cc2Cl)ccc1C#N (stereo not drawn) [Compound (1), Methyl α-[2-cyano-5-(2-chloro-4-trifluoromethylphenoxy)phenoxy]propionate]
Abutilon theophrosti; [2]
  herbicidal activity, Plants g: 5
Abutilon theophrosti; [3]
  herbicidal activity, Plants g: 5
[1]; [2]
  herbicidal activity, Plants d: 5
[1]; [3]
  herbicidal activity, Plants d: 5
Corn; Zea mays; [2]
  herbicidal activity, Plants k: 5
Corn; Zea mays; [3]
  herbicidal activity, Plants k: 5
Setaria viridis; [2]
  herbicidal activity, Plants b: 3
Setaria viridis; [3]
  herbicidal activity, Plants b: 4
Solanum nigrum; [2]
  herbicidal activity, Plants h: 5
Solanum nigrum; [3]
  herbicidal activity, Plants h: 5
Sorghum halepense; [2]
  herbicidal activity, Plants c: 5
Sorghum halepense; [3]
  herbicidal activity, Plants c: 5
Soybean; Glycine max; [2]
  herbicidal activity, Plants j: 4
Soybean; Glycine max; [3]
  herbicidal activity, Plants j: 4
Xanthium strumarium; [2]
  herbicidal activity, Plants i: 5
Xanthium strumarium; [3]
  herbicidal activity, Plants i: 5

Source: patent EP0533925A1, “OPTICAL ISOMER OF R-FORM OF DIPHENYL ETHER DERIVATIVE AND HERBICIDE CONTAINING THE SAME AS ACTIVE INGREDIENT” (TEIJIN LIMITED, priority 1990, dated 1991)
